One assay deals with CDK2/CCNE1 (Homo sapiens, UniProt P24941). Nature of the assay: CDK2 homogeneous time-resolved fluorescence (HTRF) kinase assay. The following applies: CDK2/CCNE. In kind it is biochemical. The protocol: (§1) A CDK homogeneous time-resolved fluorescence (HTRF) assay was used to assess the potency of the compounds described herein.
(§2) To an untreated 384-well microtiter plate (ProxiPlate) was added 100 nL 100×test compound in DMSO and 5 μL 2×CDK enzyme in assay buffer (50 mM HEPES, 1 mM EGTA, 10 mM MgCl2, 0.01% Tween 20, 2 mM DTT). The plate was centrifuged at 800 RPM for 1 min then incubated for 20 min at 23 °C. 2.5 μL per well of 4×ATP and 2.5 μL 4×ULight™-eIF4E-binding protein 1 (Thr37/46) Peptide substrate were added to all wells. After addition, the plates were centrifuged at 800 RPM for 1 min. The plates were incubated at 23 °C for 60 min. 5 μL per well 4×EDTA solution were added to each well to stop the reaction. 5 μL 4×LANCE Ultra Europium-anti-phospho-eIF4E-binding protein 1 (Thr37/46) antibody were added to each well and the plate was centrifuged for 1 min at 800 RPM. The plate was incubated for 60 min at 23 °C. Fluorescence was read at 340 nm excitation and 665 nm emission on an En Vision 2105 fluorescence reader. The final concentrations of reagents in the activity assay were 3 nM CDK2/CCNE1, 1 mM ATP, 50 nM ULight™-eIF4E-binding protein 1 (Thr37/46) Peptide substrate, 1% DMSO, 10 mM EDTA, and 2 nM LANCE Ultra Europium-anti-phospho-eIF4E-binding protein 1 (Thr37/46).
(§3) Dose-response titrations were conducted by using an 11-point, half-logarithmic serial dilution scheme typically starting at 10 μM. Signals were reported as fluorescence units at 665 nm or the ratio of fluorescence units at 665 nm/fluorescence units at 615 nm. Signals are referred to below as “Lance signals”.
(§4) Using this assay, the IC50 values of example compounds were determined. Table 3 illustrates the IC50 for various Example compounds of Formula IA. Table 4 illustrates the IC50 for various other Example compounds of Formula I. ND=not determined.

The target of the next assay is CDK1/CCNB1 (Homo sapiens, UniProt P06493). Nature of the assay: CDK1 homogeneous time-resolved fluorescence (HTRF) kinase assay. In kind it is biochemical. The following applies: CDK1/CCNB. The protocol:
as §1
as §2, with “were 0.5” for “were 3”, “nM CDK1/CCNB1,” for “nM CDK2/CCNE1,”
as §3, §4

The mark [1] stands for this setting: >250 nM marked x, read-out: CDK2/CCNE IC50 >250 nM.
Where [2] appears, read: >250 nM marked x, read-out: CDK1/CCNB IC50 >250 nM.
[3] abbreviates: 25-250 nM marked x, read-out: CDK2/CCNE IC50 25-250 nM.
[4] abbreviates: <25 nM, read-out: CDK2/CCNE IC50 <25 nM.

Where two headings read alike, the source gives them in different places.

Sequence of CDK1/CCNB1 (P06493 whole entry): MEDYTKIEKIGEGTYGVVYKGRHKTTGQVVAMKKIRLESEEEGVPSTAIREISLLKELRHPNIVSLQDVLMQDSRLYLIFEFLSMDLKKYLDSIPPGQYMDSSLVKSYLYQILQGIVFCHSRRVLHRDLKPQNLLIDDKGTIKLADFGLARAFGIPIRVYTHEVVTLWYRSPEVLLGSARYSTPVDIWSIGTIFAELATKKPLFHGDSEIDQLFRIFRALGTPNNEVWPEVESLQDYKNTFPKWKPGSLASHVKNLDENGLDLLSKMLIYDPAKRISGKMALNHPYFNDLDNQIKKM
Sequence of CDK1/CCNB1 (P14635 whole entry partner): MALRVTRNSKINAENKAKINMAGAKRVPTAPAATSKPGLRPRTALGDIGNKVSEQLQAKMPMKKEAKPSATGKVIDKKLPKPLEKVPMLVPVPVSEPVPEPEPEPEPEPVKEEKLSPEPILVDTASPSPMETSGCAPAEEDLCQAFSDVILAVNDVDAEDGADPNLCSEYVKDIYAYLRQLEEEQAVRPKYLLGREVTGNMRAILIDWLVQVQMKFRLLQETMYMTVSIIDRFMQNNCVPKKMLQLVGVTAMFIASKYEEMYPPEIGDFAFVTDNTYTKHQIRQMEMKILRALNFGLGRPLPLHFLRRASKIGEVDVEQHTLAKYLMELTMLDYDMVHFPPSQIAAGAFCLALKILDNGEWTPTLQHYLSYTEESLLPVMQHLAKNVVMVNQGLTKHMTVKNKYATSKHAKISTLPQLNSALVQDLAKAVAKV

As for `CS(=O)(=O)N1CCC(Nc2cc3c(N4CCS(=O)(=O)CC4)nccc3cn2)CC1` [Ex 59, 4-(7-((1-(methylsulfonyl)piperidin-4-yl)amino)-2,6-naphthyridin-1-yl)thiomorpholine 1,1-dioxide], the IC50 on CDK2/CCNE1 (setting [1]) and at CDK1/CCNB1 (setting [2]) was over 250 nM throughout.

Turning to `CS(=O)(=O)N1CCC(Nc2cc3c(N4CCN(CCO)CC4)nccc3cn2)CC1` [Ex 60, 2-(4-(7-((1-(methylsulfonyl)piperidin-4-yl)amino)-2,6-naphthyridin-1-yl)piperazin-1-yl)ethan-1-ol], the IC50 is 25 to 250 nM on CDK2/CCNE1 (setting [3]) and over 250 nM on CDK1/CCNB1 (setting [2]).

Take `CS(=O)(=O)N1CCC(Nc2cc3c(-c4ccc(C(F)(F)F)nc4)nccc3cn2)CC1` [Ex 62, N-(1-(methylsulfonyl)piperidin-4-yl)-5-(6-(trifluoromethyl)pyridin-3-yl)-2,6-naphthyridin-3-amine]: the IC50 at CDK2/CCNE1 (setting [3]) was 25 to 250 nM; on CDK1/CCNB1 (setting [2]), over 250 nM.

`CS(=O)(=O)N1CCC(Nc2cc3c(-c4cnc(N)nc4)nccc3cn2)CC1` [Ex 66, 5-(2-aminopyrimidin-5-yl)-N-(1-(methylsulfonyl)piperidin-4-yl)-2,6-naphthyridin-3-amine]: the IC50 on CDK2/CCNE1 (setting [1]) and on CDK1/CCNB1 (setting [2]) was over 250 nM each time.

As for `CS(=O)(=O)N1CCC(Nc2cc3c(-c4cccnc4)nccc3cn2)CC1` [Ex 67, N-(1-(methylsulfonyl)piperidin-4-yl)-5-(pyridin-3-yl)-2,6-naphthyridin-3-amine], the values for the IC50 on CDK2/CCNE1 (setting [3]) and on CDK1/CCNB1 (setting [2]) were 25 to 250 nM and over 250 nM, respectively.

As for `CS(=O)(=O)N1CCC(Nc2cc3c(/C(C#N)=C/O)nccc3cn2)CC1` [Ex 80, (Z)-3-hydroxy-2-(7-((1-(methylsulfonyl)piperidin-4-yl)amino)-2,6-naphthyridin-1-yl)acrylonitrile], the IC50 was 25 to 250 nM at CDK2/CCNE1 (setting [3]) and over 250 nM at CDK1/CCNB1 (setting [2]).

As for `CS(=O)(=O)N1CCC(Nc2cc3c(-c4ccncc4)nccc3cn2)CC1` [Ex 83, N-(1-(methylsulfonyl)piperidin-4-yl)-5-(pyridin-4-yl)-2,6-naphthyridin-3-amine], the figures for the IC50 on CDK2/CCNE1 (setting [3]) and at CDK1/CCNB1 (setting [2]) were 25 to 250 nM and over 250 nM, respectively.

In the case of `CS(=O)(=O)N1CCC(Nc2cc3c(-c4ccc(CN5CCOCC5)cc4)nccc3cn2)CC1` [Ex 84, N-(1-(methylsulfonyl)piperidin-4-yl)-5-(4-(morpholinomethyl)phenyl)-2,6-naphthyridin-3-amine], the IC50 was 25 to 250 nM at CDK2/CCNE1 (setting [3]) and over 250 nM at CDK1/CCNB1 (setting [2]).

For the molecule `COc1ncc(-c2nccc3cnc(NC4CCN(S(C)(=O)=O)CC4)cc23)cn1` [Ex 85, 5-(2-methoxypyrimidin-5-yl)-N-(1-(methylsulfonyl)piperidin-4-yl)-2,6-naphthyridin-3-amine], the IC50 on CDK2/CCNE1 (setting [1]) and on CDK1/CCNB1 (setting [2]) was over 250 nM in each case.

Regarding `CS(=O)(=O)N1CCC(Nc2cc3c(-c4ccc(C(=O)O)cc4)nccc3cn2)CC1` [Ex 86, 4-(7-((1-(methylsulfonyl)piperidin-4-yl)amino)-2,6-naphthyridin-1-yl)benzoic acid], the IC50 at CDK2/CCNE1 (setting [1]) and on CDK1/CCNB1 (setting [2]) was over 250 nM each time.

Take `CS(=O)(=O)N1CCC(Nc2cc3c(-c4cnc5[nH]ccc5c4)nccc3cn2)CC1` [Ex 88, N-(1-(methylsulfonyl)piperidin-4-yl)-5-(1H-pyrrolo[2,3-b]pyridin-5-yl)-2,6-naphthyridin-3-amine]: the IC50 was 25 to 250 nM on CDK2/CCNE1 (setting [3]) and over 250 nM at CDK1/CCNB1 (setting [2]).

Regarding `CS(=O)(=O)N1CCC(Nc2cc3c(C(=O)NC4CC4)nccc3cn2)CC1` [Ex 93, N-cyclopropyl-7-((1-(methylsulfonyl)piperidin-4-yl)amino)-2,6-naphthyridine-1-carboxamide], the IC50 on CDK2/CCNE1 (setting [1]) and on CDK1/CCNB1 (setting [2]) was over 250 nM each time.

Turning to `C=CS(=O)(=O)N1CCC(Nc2cc3c(N4CCC(O)CC4)nccc3cn2)CC1` [Ex 105, 1-(7-((1-(vinylsulfonyl)piperidin-4-yl)amino)-2,6-naphthyridin-1-yl)piperidin-4-ol], the IC50 was under 25 nM on CDK2/CCNE1 (setting [4]) and over 250 nM at CDK1/CCNB1 (setting [2]).

In the case of `C=CS(=O)(=O)N1CCC(Nc2cc3c(-c4cnn(C)c4)nccc3cn2)CC1` [Ex 108, 5-(1-methyl-1H-pyrazol-4-yl)-N-(1-(vinylsulfonyl)piperidin-4-yl)-2,6-naphthyridin-3-amine], the IC50 was 25 to 250 nM at CDK2/CCNE1 (setting [3]) and over 250 nM on CDK1/CCNB1 (setting [2]).

Take `C=CS(=O)(=O)N1CCC(Nc2cc3c(-c4ccc(C#N)nc4)nccc3cn2)CC1` [Ex 109, 5-(7-((1-(vinylsulfonyl)piperidin-4-yl)amino)-2,6-naphthyridin-1-yl)picolinonitrile]: the figures for the IC50 on CDK2/CCNE1 (setting [3]) and on CDK1/CCNB1 (setting [2]) were 25 to 250 nM and over 250 nM, respectively.

Regarding `N#CC1CCN(c2nccc3cnc(Nc4ccc(C(=O)ON5C(=O)CCC5=O)cc4)cc23)CC1` [Ex 110, 2,5-dioxopyrrolidin-1-yl 4-((5-(4-cyanopiperidin-1-yl)-2,6-naphthyridin-3-yl)amino)benzoate], the IC50 on CDK2/CCNE1 (setting [4]) was under 25 nM; at CDK1/CCNB1 (<25 nM, read-out: CDK1/CCNB IC50 <25 nM), under 25 nM.

On to `N#CC1CCN(c2nccc3cnc(Nc4cccc(C(=O)ON5C(=O)CCC5=O)c4)cc23)CC1` [Ex 111, 2,5-dioxopyrrolidin-1-yl 3-((5-(4-cyanopiperidin-1-yl)-2,6-naphthyridin-3-yl)amino)benzoate], for which the results for the IC50 on CDK2/CCNE1 (setting [3]) and on CDK1/CCNB1 (setting [2]) were 25 to 250 nM and over 250 nM, respectively.

As for `CS(=O)(=O)N1CCC(Nc2cc3c(N4CCCCC4)nc(C(F)F)cc3cn2)CC1` [Ex 118, 7-(difluoromethyl)-N-(1-(methylsulfonyl)piperidin-4-yl)-5-(piperidin-1-yl)-2,6-naphthyridin-3-amine], the values for the IC50 on CDK2/CCNE1 (setting [3]) and at CDK1/CCNB1 (setting [2]) were 25 to 250 nM and over 250 nM, respectively.

For `CS(=O)(=O)N1CCC(Nc2cc3c(N4CCCCC4)nc(CCl)cc3cn2)CC1` [Ex 119, 7-(chloromethyl)-N-(1-(methylsulfonyl)piperidin-4-yl)-5-(piperidin-1-yl)-2,6-naphthyridin-3-amine], the IC50 on CDK2/CCNE1 (setting [1]) and at CDK1/CCNB1 (setting [2]) was over 250 nM in each case.

As to `Cn1cc(-c2nccc3cnc(Nc4ccc(S(C)(=O)=O)cc4)cc23)nn1` [Ex 125, 5-(1-methyl-1H-1,2,3-triazol-4-yl)-N-(4-(methylsulfonyl)phenyl)-2,6-naphthyridin-3-amine], the values for the IC50 at CDK2/CCNE1 (setting [3]) and on CDK1/CCNB1 (setting [2]) were 25 to 250 nM and over 250 nM, respectively.

For `CS(=O)(=O)c1ccc(Nc2cc3c(-c4ccc5[nH]cnc5c4)nccc3cn2)cc1` [Ex 126, 5-(1H-benzo[d]imidazol-5-yl)-N-(4-(methylsulfonyl)phenyl)-2,6-naphthyridin-3-amine], the IC50 is 25 to 250 nM on CDK2/CCNE1 (setting [3]) and over 250 nM on CDK1/CCNB1 (setting [2]).

On to `N#CC1CCN(c2nccc3cnc(Nc4ccc(C=O)cc4)cc23)CC1` [Ex 128, 1-(7-((4-formylphenyl)amino)-2,6-naphthyridin-1-yl)piperidine-4-carbonitrile], for which the IC50 was 25 to 250 nM on CDK2/CCNE1 (setting [3]) and over 250 nM at CDK1/CCNB1 (setting [2]).

Turning to `N#CC1CCN(c2nccc3cnc(Nc4ccc(CO)cc4)cc23)CC1` [Ex 132, 1-(7-((4-(hydroxymethyl)phenyl)amino)-2,6-naphthyridin-1-yl)piperidine-4-carbonitrile], the IC50 is 25 to 250 nM on CDK2/CCNE1 (setting [3]) and over 250 nM at CDK1/CCNB1 (setting [2]).

For `N#CC1CCN(c2nccc3cnc(Nc4ccc(CCO)cc4)cc23)CC1` [Ex 133, 1-(7-((4-(2-hydroxyethyl)phenyl)amino)-2,6-naphthyridin-1-yl)piperidine-4-carbonitrile], the IC50 on CDK2/CCNE1 (setting [3]) is 25 to 250 nM; at CDK1/CCNB1 (setting [2]), over 250 nM.

These data come from patent publication US20260325533A1, “CDK INHIBITOR COMPOUNDS” (ALEKSIA THERAPEUTICS, INC., priority 2023, published 2026).
